Results: PMC7955127, “Preclinical small molecule WEHI-7326 overcomes drug resistance and elicits response in patient-derived xenograft models of human treatment-refractory tumors” (Cell Death & Disease, 2021)

Tests used:
[1] = test system: U87MG-(Δ2–7) (glioblastoma) xenograft; assay: U87MG-(Δ2–7) tumor xenograft in nude mice; type: in vivo, BALB/c nude mice; conditions: U87MG-(Δ2–7) xenograft, i.p. three times weekly
Description: Tumor cell lines LIM2537, U87MGΔ2–7EGFR or H1437 were collected by trypsinization, counted and injected at 5 × 10^6 cells/ site subcutaneously on both flanks of BALB/c nude mice. Treatment with vehicle control or WEHI-7326 at given dose was initiated after 5 days. Drug or vehicle (100 μl) was injected intraperitoneally three times weekly. Control group and treatment group consisted of 8 mice each. Tumors were measured twice weekly with calipers. Tumor volumes were estimated using the modified ellipsoid formula V = 1/2 (length × width^2). The experiments were terminated when tumors in the control group started ulcerating or exceeded 17 mm in length, in line with the LICR/DoS Animal Ethics Committee guidelines (11/05 A).

HepG2 cytotoxic assay = type: cell-based; conditions: human; HepG2 cells, cell viability after 48 h
Description: a Chemical structures of the triazine-based anti-mitotics used in this study. b Dose-dependent antiproliferative activity of key derivatives and comparison with commonly used anti-mitotics in SW480 cell line: Data shown is cell viability (as measured by CellTiterGlo) after 72 h relative to untreated control cells. Shown is mean of 3 independent experiments performed in duplicate +/- SEM. c Dose-dependent cell cycle analysis of key derivatives of WEHI-7326 development in SW480 cell line. Data are presented as percentage of cells in G2/M or subG0 after 24 h incubation with titration of inhibitors as assessed by PI staining and flow cytometry. Mean average of 3 experiments +/- SEM. d Comparison of IC50 and EC50 values of triazine compounds and anti-mitotic drugs in SW480 cell line: inhibition of cellular proliferation and cell cycle arrest in G2/M. IC50 and EC50 values are the mean of 3 independent experiments run in duplicates +/- SEM (n.d. = not determined). e HepG2 cytotoxic assay: cell viability assay after 48 h, normalised to 0.4% DMSO (100% viability) and 2 μM bortezomib (0% viability). The data is the mean average of 2 experiments +/- SD.

tubulin in SW480 cells = assay: Tubulin polymerization in cells (polymerized vs soluble, western blot); type: cell-based, human; conditions: 100 nM, overnight, vs control cells
Description: Cells incubated with control or with inhibitors were lysed in hypotonic buffer (1 mM MgCl2/2 mM EGTA/0.5% Nonidet P-40/20 mM Tris·HCl, pH 6.8 with the addition of complete protease inhibitor cocktail). The lysates were centrifuged at 14,000 rpm for 10 min at RT. Supernatants (containing soluble tubulin) and pellets (containing polymerized tubulin) were separated and each sample was brought to an equal volume with hypotonic buffer. Proteins were resolved by SDS/PAGE on 4–12% gels (Invitrogen, Carlsbad, CA), transferred to nitrocellulose and immunoblotted with an antibody against tubulin followed by fluorescent secondary antibody. Immunoreactive bands were detected using an Odyssey photometer (Li-Cor, Lincoln, NB).

134169 HGSOC PDX = assay: HGSOC post-chemo PDX model 134169; type: in vivo, NSG mice; conditions: 134169 post-taxane, cisplatin-refractory PDX; 20 mg/kg i.v. twice a week, 6 weeks
Description: (§1) Two to three mm ovarian tumor fragments were subcutaneously engrafted in the left flank of NSG mice and monitored by physical palpation for tumor growth and engraftment. Engrafted tumors were measured twice a week using digital Vernier calipers and maximum tumor diameter + perpendicular tumor length were digitally recorded into the Study Director software (v 3.0/4.0 StudyLog). Tumor volume was calculated automatically (tumor volume (mm^3) = 0.5236 x [larger diameter (mm) x smaller diameter (mm)^2]). Mice were randomized to treatment once their tumor volume reach 180–300 mm^3 and tumor measurements were performed twice a week up to 120 days or when the tumor volume reaches 700 mm^3.
(§2) Time to progressive disease (PD): Defined as the time (in days) from beginning of treatment to an increase in average tumor volume of >20% from the nadir (taken as the smallest average tumor volume recorded since treatment started or 200 mm^3 if nadir was <200 mm^3 as lesions smaller than this are difficult to measure with accuracy). Median time to harvest (TTH): Defined as the time (in days) from the beginning of treatment to day of harvest at 700 mm^3 and the median TTH was calculated and plotted using Kaplan-Meier curves. Based on ref. [27]. […]

134183 HGSOC PDX = assay: HGSOC PDX model 134183; type: in vivo, NSG mice; conditions: 134183 platinum-sensitive PDX; 20 mg/kg i.v. biweekly, 6 weeks
Description: as §1, §2

[2] = test system: PC3 (human prostate carcinoma) xenograft; assay: PC3 tumor xenograft in nude mice; type: in vivo, Balb/c nude mice; conditions: male nude mice, day 17, biweekly i.v.
Description: LoVo (4 × 10^6), PC3 (3 × 10^6) or MDA-MB-231 LNA DRE (10^6) cells were collected by trypsination and injected with 50 μl 1:1 PBS:Matrigel (v/v) subcutaneously on the right flank of 18 female (LoVo), 40 male (PC3) or into 4th mammary fat pad of 40 female (MDA231) Balb/c nude mice. Tumor growth was monitored and average tumor size at commencement of dosing was 100 mm^3. Mice were randomized into 3 arms of each 5 (LoVo), 10 (PC3) or 12 (MDA23) mice respectively and treatment with vehicle (saline), WEHI-7326 (biweekly) or docetaxel (weekly) was administered via tail vein injection. Tumor volumes were measured at least twice weekly with calipers and the experiments were terminated when tumors in the control group started exceeding 1500 mm^3. For LoVo, both vehicle and 25 mg/kg WEHI-7326 groups were harvested 24 h, but 20 mg/kg WEHI-7326 group harvested 1 h post final dose. For PC3, docetaxel group was not harvested in an attempt to grow out resistant tumors.

AH406 LUSC PDX = assay: LUSC PDX model AH406; type: in vivo, NOD-SCID-IL2Rγc–/– mice; conditions: WEHI-7326 20 mg/kg i.v. biweekly, docetaxel 10 mg/kg i.p. once
Description: LUSC PDXs were generated as described in[25]. PDXs at passage 4 were defrosted and washed with PBS before counting. 200,000 to 500,000 cells were then injected in a 50:50 PBS:Matrigel mix into the flanks of NOD-SCID-IL2Rγc–/– male mice. Tumors were measured twice weekly with calipers and treatment started when tumors were between 70–120 mm^3. Mice were assigned to treatment groups based on average tumor volume per group. Mice were culled when tumors reached a volume of 600 mm^3.

COc1ccc(CNc2nc(NCc3ccc(CN)cc3)nc(NN3CC(=O)NC3=O)n2)cc1 [WEHI-7326]
Tumor growth [1]: effective in reducing tumor growth
IC50 at 48 h (HepG2 cytotoxic assay): > 40 µM
Change in ratio of polymerized to soluble tubulin (tubulin in SW480 cells): no significant change
Tumor response (134169 HGSOC PDX): ineffective
Median time to harvest (TTH) (134183 HGSOC PDX): lack of improvement
Time to progressive disease (PD) (134183 HGSOC PDX): 53 days
Tumor growth inhibition (TGI) [2]: ~ 75%
Median survival (AH406 LUSC PDX): 29 days
